Assay results from BindingDB's records for doi:10.1016/j.ejmech.2021.113481 (Harvard Medical School, 2021).

Target: Cyclin-H/Cyclin-dependent kinase 7 (Homo sapiens, UniProt P51946+P50613)
Assay: Inhibition of CDK7/Cyclin H (unknown origin)

Chain of Cyclin-H/Cyclin-dependent kinase 7 (P51946 whole entry): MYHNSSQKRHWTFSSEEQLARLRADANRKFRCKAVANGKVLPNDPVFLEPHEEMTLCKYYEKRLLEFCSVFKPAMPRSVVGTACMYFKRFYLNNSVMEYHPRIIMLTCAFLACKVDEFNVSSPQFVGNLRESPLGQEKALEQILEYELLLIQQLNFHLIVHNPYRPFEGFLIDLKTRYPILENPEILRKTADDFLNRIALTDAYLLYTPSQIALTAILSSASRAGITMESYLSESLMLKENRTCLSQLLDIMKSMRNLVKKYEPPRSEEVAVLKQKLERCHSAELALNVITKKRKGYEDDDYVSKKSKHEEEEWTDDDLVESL
Chain of Cyclin-H/Cyclin-dependent kinase 7 (P50613 whole entry): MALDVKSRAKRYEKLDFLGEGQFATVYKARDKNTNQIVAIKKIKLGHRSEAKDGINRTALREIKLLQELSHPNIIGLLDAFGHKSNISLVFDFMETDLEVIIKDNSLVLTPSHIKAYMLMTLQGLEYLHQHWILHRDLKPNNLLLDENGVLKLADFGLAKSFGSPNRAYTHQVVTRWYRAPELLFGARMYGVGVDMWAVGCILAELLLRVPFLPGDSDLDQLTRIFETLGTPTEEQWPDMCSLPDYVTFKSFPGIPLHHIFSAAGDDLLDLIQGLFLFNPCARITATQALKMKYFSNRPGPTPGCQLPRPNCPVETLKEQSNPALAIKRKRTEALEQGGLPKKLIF

Row | IC50 [µM] | SMILES
1 | 0.402 | CN(C)C/C=C/C(=O)Nc1ccc(C(=O)N2CCC[C@@H](Nc3ncc(Cl)c(-c4c[nH]c5ccccc45)n3)C2)nc1
2 | 0.919 | C=CC(=O)Nc1ccc(C(=O)N2CCC[C@@H](Nc3ncc(Cl)c(-c4c[nH]c5ccccc45)n3)C2)nc1
3 | 0.074 | CN(C)C/C=C/C(=O)Nc1ccc(N2CCC[C@@H](Nc3ncc(Cl)c(-c4c[nH]c5ccccc45)n3)C2)nc1
4 | 0.269 | CN(C)C/C=C/C(=O)Nc1ccc(O[C@@H]2CCC[C@@H](Nc3ncc(Cl)c(-c4c[nH]c5ccccc45)n3)C2)c(F)c1
